Values quoted from earlier work in article PMC8764166, “Phenolic-Rich Plant Extracts With Antimicrobial Activity: An Alternative to Food Preservatives and Biocides?” (Frontiers in Microbiology, 2022).
Converted amounts (≈) assume the structure as drawn. Read-outs that look alike come from different tables or passages of the source.

Tests used:
Escherichia coli = conditions: for MIC against Escherichia coli: E. coli O157:H7 ATCC 43890, 2.5 10^6 cfu·ml^−1, Mueller Hinton broth, ref Pacheco-Ordaz et al., 2017
Bacillus cereus = conditions: for MIC against Bacillus cereus: ref Skroza et al., 2019
Enterococcus faecalis = conditions: for MIC against Enterococcus faecalis: ref Adamczak et al., 2020
Pseudomonas aeruginosa = conditions: ref Adamczak et al., 2020
Salmonella Infantis = tested on: Salmonella Infantis; design: method as in Skroza et al., 2019; conditions: ref Skroza et al., 2019
S. aureus [1] = tested on: S. aureus; design: method as in Stojkovic et al., 2013; conditions: chicken soup, 4°C, within 3 days; ref Stojkovic et al., 2013
S. aureus [2] = conditions: up to 20% (w/w) proteins, 37°C, 15°C or 6°C; ref Bouarab-Chibane et al. (2018b)
[3] = tested on: biofilms with undesirable food spoiling or foodborne pathogenic microorganisms; design: method as in the references listed per substance; conditions: the references listed per substance
Bacillus subtilis = tested on: Bacillus subtilis; design: method as in Duggirala et al., 2014; conditions: ref Duggirala et al., 2014
L. monocytogenes = tested on: L. monocytogenes; design: method as in Pernin et al., 2019; conditions: ref Pernin et al., 2019
[4] = tested on: Salmonella enterica serovar Typhimurium; conditions: ref Alvarado-Martinez et al., 2020
[5] = ŽMJ 129 (clinical isolate), 10^5–10^6 cfu·ml^−1, Mueller Hinton broth, 24 h 37°C, ref Skroza et al., 2019

SMILES	MIC against E. coli (Escherichia coli; ref Adamczak et al., 2020)	MIC against E. coli (Escherichia coli; [5]) [µg/mL]	MIC against Bacillus cereus (Bacillus cereus) [µg/mL]	MIC against Enterococcus faecalis (Enterococcus faecalis)	MIC against S. aureus (Staphylococcus aureus; ref Skroza et al., 2019) [µg/mL]	MIC against P. aeruginosa (Pseudomonas aeruginosa)	MIC against Salmonella Infantis (Salmonella Infantis) [µg/mL]	other results
COC1=CC(=O)C=C(OC)C1=O [2,6-dimethoxy-1,4-benzoquinone]								MIC against E. coli (Escherichia coli; ref Kim et al., 2010): 32 µg/mL (≈ 190 µM); MIC against S. typhimurium (Salmonella typhimurium; ref Kim et al., 2010): 32 µg/mL (≈ 190 µM); MIC against B. cereus (Bacillus cereus; ref Kim et al., 2010): 64 µg/mL (≈ 381 µM); MIC against S. aureus (Staphylococcus aureus; ref Kim et al., 2010): 8 µg/mL (≈ 47.6 µM)
O=C(O)c1ccccc1O [Salicylic acid]	250 to 500 µg/mL	170 (≈ 1230 µM)	170 (≈ 1230 µM)	500 µg/mL (≈ 3620 µM)	350 (≈ 2530 µM)	500 µg/mL (≈ 3620 µM)	170 (≈ 1230 µM)	MIC against S. aureus (Staphylococcus aureus; ref Adamczak et al., 2020): 250 to 500 µg/mL
C[C@@H]1O[C@@H](OC[C@H]2O[C@@H](Oc3c(-c4ccc(O)c(O)c4)oc4cc(O)cc(O)c4c3=O)[C@H](O)[C@@H](O)[C@@H]2O)[C@H](O)[C@H](O)[C@H]1O [Rutin]	500 µg/mL (≈ 819 µM)			1000 µg/mL (≈ 1640 µM)		500 µg/mL (≈ 819 µM)		concentration totally inhibiting growth of S. aureus (S. aureus [1]): – for concentrations above 0.23% (w/v), each phenolic totally inhibited the growth of S. aureus inoculated in chicken soup at 4 °C within 3 days; MIC against S. aureus (Staphylococcus aureus; ref Adamczak et al., 2020): 1000 µg/mL (≈ 1640 µM)
O=c1cc(-c2ccccc2)oc2cc(O)cc(O)c12 [Chrysin]	500 µg/mL (≈ 1970 µM)			1000 µg/mL (≈ 3930 µM)		500 µg/mL (≈ 1970 µM)		MIC against S. aureus (Staphylococcus aureus; ref Adamczak et al., 2020): 500 µg/mL (≈ 1970 µM); antibacterial activity in the presence of bovine meat proteins (S. aureus [2]): always lost their bacteriostatic activity
O=c1cc(-c2ccccc2)oc2ccccc12 [Flavone]	E. faecalis 0.5 g·L^−1 E. coli 0.5 g·L^−1 P. aeruginosa 0.5 g·L^−1			E. faecalis 0.5 g·L^−1 E. coli 0.5 g·L^−1 P. aeruginosa 0.5 g·L^−1		E. faecalis 0.5 g·L^−1 E. coli 0.5 g·L^−1 P. aeruginosa 0.5 g·L^−1		
C[C@@H]1O[C@@H](O[C@H]2[C@H](Oc3cc(O)c4c(c3)O[C@H](c3ccc(O)cc3)CC4=O)O[C@H](CO)[C@@H](O)[C@@H]2O)[C@H](O)[C@H](O)[C@H]1O [Naringin]	500 µg/mL (≈ 861 µM)			1000 µg/mL (≈ 1720 µM)		500 µg/mL (≈ 861 µM)		
CC(C)(C)c1ccc(O)c(O)c1 [4-tert-butylcatechol]								activity against biofilms [3]: inhibit formation or to eradicate biofilms
O=c1ccc2ccc(O)c(O)c2o1 [daphnetin]								length of bacteria (Bacillus subtilis): increase in length of bacteria
COc1cc(C(=O)O)ccc1O [Vanillic acid]		100 (≈ 595 µM)	100 (≈ 595 µM)		420 (≈ 2500 µM)		210 (≈ 1250 µM)	mechanism of action against L. monocytogenes (L. monocytogenes): penetration or accumulation in the bacterial membrane of undissociated form; MIC against Escherichia coli (Escherichia coli; 24 h 37°C): 3400 µg/mL (≈ 20200 µM); MIC against Salmonella typhimurium (Salmonella typhimurium; ref Pacheco-Ordaz et al., 2017): 2500 µg/mL (≈ 14900 µM); cell morphology [4]: observation of mid-division cells; membrane permeabilization [4]: membrane permeabilization; activity against biofilms [3]: inhibit formation or to eradicate biofilms
Oc1cccc(O)c1O [pyrogallol]								activity against biofilms [3]: inhibit formation or to eradicate biofilms
O=c1cc(-c2ccc(O)cc2)oc2c([C@@H]3O[C@H](CO)[C@@H](O)[C@H](O)[C@H]3O)c(O)cc(O)c12 [Vitexin]	500 µg/mL (≈ 1160 µM)			1000 µg/mL (≈ 2310 µM)		500 µg/mL (≈ 1160 µM)		
COc1cc(C(=O)O)cc(OC)c1O [Syringic acid]		250 (≈ 1260 µM)	250 (≈ 1260 µM)		500 (≈ 2520 µM)		250 (≈ 1260 µM)	MIC against S. typhimurium (Salmonella typhimurium; ref Phadungkit and Luanratana, 2006): S. typhimurium 0.0625 g·L^−1
O=C(O)c1ccc(O)c(O)c1 [Proto-catechuic acid]		380 (≈ 2470 µM)	190 (≈ 1230 µM)		380 (≈ 2470 µM)		380 (≈ 2470 µM)	mechanism of action against L. monocytogenes (L. monocytogenes): penetration or accumulation in the bacterial membrane of undissociated form; MIC against Escherichia coli (Escherichia coli; 24 h 37°C): E. coli, 3.1 g·L^−1; cell morphology [4]: morphological defects at the polar ends of bacteria; expression of virulence genes (SPI-1) [4]: downregulation of key regulatory genes; membrane permeabilization [4]: membrane permeabilization
CN(C)c1ccc2nc3c(C(=O)O)cc(=O)c(O)c-3oc2c1 [gallocyanin]								antibacterial activity in the presence of bovine meat proteins (S. aureus [2]): kept its bactericidal activity at 37 °C up to a 5% (w/w) protein content in the medium, but not at 15 °C or 6 °C
O=c1cc(-c2ccc(O)c(O)c2)oc2c([C@@H]3O[C@H](CO)[C@@H](O)[C@H](O)[C@H]3O)c(O)cc(O)c12 [Orientin]	500 µg/mL (≈ 1120 µM)			1000 µg/mL (≈ 2230 µM)		500 µg/mL (≈ 1120 µM)		MIC against S. aureus (Staphylococcus aureus; ref Adamczak et al., 2020): 500 µg/mL (≈ 1120 µM)
Oc1ccc(/C=C/c2cc(O)cc(O)c2)cc1 [Resveratrol]		140 (≈ 613 µM)	70 (≈ 307 µM)		70 (≈ 307 µM)		140 (≈ 613 µM)	MIC against E. faecalis (Enterococcus faecalis; ref del Valle et al., 2016): E. faecalis 0.12 g·L^−1; antibacterial activity in the presence of bovine meat proteins (S. aureus [2]): always lost their bacteriostatic activity
